Test results as given in patent publication US12545637B2, “Extrahepatic targeted cationic lipid compound with high efficiency and low toxicity and its composition” (BEIJING YOUCARE KECHUANG PHARMACEUTICAL TECHNOLOGY CO., LTD., priority 2023, dated 2026).

Key:
[1] = Particle size and polydispersity index (PDI) of lipid nanoparticles by dynamic light scattering; assay type: physicochemical
Description: The particle size and polydispersity index (PDI) were determined by dynamic light scattering using Malvern laser particle size analyzer.
10 μL of the liposome solution was weighed, diluted to 1 mL with RNase-free deionized water, and added to the sample pool. Each sample was measured in triplicate. The measurement conditions were: […] scattering angle, and 25° C.

[2] = tested on: 293T cells; test: Fluorescent detection of Fluc-mRNA (cell transfection efficiency of LNP formulations); assay type: cell-based
[3] = tested on: female BALB/C mice; test: In vivo imaging in mice of Fluc-mRNA LNP formulations (mRNA expression and duration)
Description: The LNP formulation (prepared according to Example 4) containing […] Fluc-mRNA was injected intramuscularly into female BALB/C mice aged 4-6 weeks and weighed 17-19 g, and the mice were intraperitoneally injected with fluorescent imaging substrate at specific time points after administration (6h, 24 h, 48h and 7d), where the mice were allowed to free move for 5 minutes, and then the average radiation intensity (corresponding to fluorescence expression intensity) of the protein expression of the mRNA carried by the LNP in the mice was detected by the IVIS Spectrum small animal in vivo imaging system.

[4] = tested on: 293T cells; test: Cell transfection test of LNP formulation of eGFP-mRNA (optimization of preparation conditions); assay type: cell-based
Description: The cationic lipid compound YK-407 synthesized in Example 1 was dissolved in ethanol with DSPC (AVT (Shanghai) Pharmaceutical Technology Co., Ltd.), cholesterol (AVT (Shanghai) Pharmaceutical Technology Co., Ltd.) and DMG-PEG2000 according to a molar ratio of 49:10:39.5:1.5, respectively, to prepare an ethanol lipid solution. The ethanol lipid solution was quickly added to citrate buffer (pH=4-5) by ethanol injection method, and vortexed for 30s for later use. eGFP-mRNA was diluted in citrate buffer (pH=4-5) to give an aqueous mRNA solution. A certain volume of liposome solution and mRNA aqueous solution were used to prepare liposomes at weight ratios of total lipids to mRNA of 5:1, 10:1, 15:1, 20:1, 30:1 and 35:1, respectively. The mixtures were sonicated at 25° C. for 15 min (with an ultrasonic frequency of 40 kHz and an ultrasonic power of 800 W). The resulted liposomes were diluted to 10 times volume with PBS, and then ultrafiltered with a 300KDa ultrafiltration tube to remove ethanol. Then the volume was fixed to a certain volume with PBS to give an LNP formulation encapsulating eGFP-mRNA using cationic lipid YK-407/DSPC/cholesterol/DMG-PEG2000 (49:10:39.5:1.5 in molar percentage).
The LNP formulation encapsulating eGFP-mRNA was prepared according to the method in 1, wherein the molar ratios of cationic lipid YK-407 to neutral lipid DSPC were 1:1, 3:1, 3.5:1, 4:1, 4.5:1, 4.9:1, 10:1, 15:1 and 20:1.
The LNP formulation encapsulating eGFP-mRNA was prepared according to the method in 1, wherein the cationic lipid in the carrier was YK-407, and the molar ratios of the polymer-conjugated lipid DMG-PEG2000 to the carrier were 0.5%, 1.5%, 3.5%, 5%, 10% and 15%, respectively.
The LNP formulation encapsulating eGFP-mRNA was prepared according to the method in 1, wherein the molar ratios of cationic lipid YK-407, neutral lipid DSPC, structured lipid cholesterol and polymer-conjugated lipid DMG-PEG2000 were 75:5:15:5, 49:10:39.5:1.5, 45:10:43.5:1.5, 45:25:20:10, 40:10:48.5:1.5, 35:10:53.5:1.5 and 25:5:65:5, respectively.
Cell recovery and passage: 293T cells were recovered, cultured in a culture dish, and passaged to the required number of cells.
Seeding plate: The cells in the culture dish were digested and counted. Cells were spread in a 96-well plate at 10,000 cells per well and in a 12-well plate at 150,000 cells per well. Cells were cultured overnight until the cells adhered to the wall.
Cell transfection test: The LNP formulation containing 1.5 μg of eGFP-mRNA prepared in Example 2 (the cationic lipid in the carrier was YK-407) and the Lipofectamin 3000 formulation of eGFP-mRNA were added respectively to the cell culture medium of the 12-well plate, and further incubated for 24 hours. The transfection efficiency of different samples was then investigated according to the fluorescence intensity by observing with a fluorescence microscope.

[5] = tested on: 293T cells; test: Fluorescent detection of Fluc-mRNA (cell transfection efficiency of LNP formulations); assay type: cell-based; remark: listed apart in the source

SMILES: CCCCCCCCC(CCCCCCCC)OC(=O)CCCCCCCN(CCO)CCN(CCO)CCCCCCCC(=O)OC(CCCCCCCC)CCCCCCCC [YK-403, di(heptadecan-9-yl) 8, 8′-(ethane-1,2-diyl-bis((2-hydroxyethyl)azanediyl))dioctanoate]
- PDI ([1]; LNP formulation of the cationic lipid, 25° C.): 16.5%
- Particle size ([1]; LNP formulation of the cationic lipid/DSPC/cholesterol/DMG-PEG2000 49:10:39.5:1.5, 25° C.): 163 nm
- RLU value, times that of ALC-0315 ([2]; ratio vs ALC-0315): 2.40
- RLU value, times that of HHMA ([2]; ratio vs HHMA): 2.52
- RLU value, times that of Lipofectamine 3000 ([2]; ratio vs Lipofectamine 3000): 4.37
- RLU value, times that of YK-009 ([2]; ratio vs YK-009): 1.02
- RLU value, times that of YK-405 ([2]; ratio vs YK-405): 1.64
- RLU value, times that of YK-406 ([2]; ratio vs YK-406): 67.08
- RLU value, times that of YK-408 ([2]; ratio vs YK-408): 3.56
- RLU value, times that of YK-409 ([2]; ratio vs YK-409): 7.84
- RLU value, times that of YK-410 ([2]; ratio vs YK-410): 12.87
- cell transfection efficiency, times that of YK-412 ([2]; ratio vs YK-412): 1.56
- cell transfection efficiency, times that of YK-413 ([2]; ratio vs YK-413): 3.81
- cell transfection efficiency, times that of YK-414 ([2]; ratio vs YK-414): 11.82
- cell transfection efficiency, times that of YK-416 ([2]; ratio vs YK-416): 1.32
- cell transfection efficiency, times that of YK-419 ([2]; ratio vs YK-419): 1.66
- cell transfection efficiency, times that of YK-420 ([2]; ratio vs YK-420): 1.31
- cell transfection efficiency, times that of YK-421 ([2]; ratio vs YK-421): 11.25
- average radiation intensity, times that of ALC-0315 ([3]; 6 h): 1.89
- average radiation intensity, times that of HHMA ([3]; 6 h): 2.40
- average radiation intensity, times that of SM-102 ([3]; 6 h): 2.30
- average radiation intensity, times that of compound 21 ([3]; 6 h): 2.65
- average radiation intensity, times that of compound 23 ([3]; 6 h): 2.73
- expression amount in mice, times that of YK-415 ([3]; 6 h): 13.48
- expression amount in mice, times that of YK-417 ([3]; 6 h): 26.26
- mRNA expression in mice, times that of YK-411 ([3]; 6 h): 271.52
- average radiation intensity, times that of ALC-0315 ([3]; 24 h): 4.51
- average radiation intensity, times that of HHMA ([3]; 24 h): 7.13
- average radiation intensity, times that of SM-102 ([3]; 24 h): 6.93
- average radiation intensity, times that of compound 21 ([3]; 24 h): 7.70
- average radiation intensity, times that of compound 23 ([3]; 24 h): 8.47
- expression amount in mice, times that of YK-415 ([3]; 24 h): 13.26
- expression amount in mice, times that of YK-417 ([3]; 24 h): 42.79
- mRNA expression in mice, times that of YK-411 ([3]; 24 h): 422.95
- average radiation intensity, times that of ALC-0315 ([3]; 48 h): 7.69
- average radiation intensity, times that of HHMA ([3]; 48 h): 9.25
- average radiation intensity, times that of SM-102 ([3]; 48 h): 9.39
- average radiation intensity, times that of compound 21 ([3]; 48 h): 9.78
- average radiation intensity, times that of compound 23 ([3]; 48 h): 9.37
- expression amount in mice, times that of YK-415 ([3]; 48 h): 19.54
- expression amount in mice, times that of YK-417 ([3]; 48 h): 43.80
- mRNA expression in mice, times that of YK-411 ([3]; 48 h): 316.45
- average radiation intensity, times that of ALC-0315 ([3]; 7 d): 1.41
- average radiation intensity, times that of HHMA ([3]; 7 d): 1.65
- average radiation intensity, times that of SM-102 ([3]; 7 d): 1.47
- average radiation intensity, times that of compound 21 ([3]; 7 d): 1.55
- average radiation intensity, times that of compound 23 ([3]; 7 d): 1.61
- expression amount in mice, times that of YK-415 ([3]; 7 d): 2.44
- expression amount in mice, times that of YK-417 ([3]; 7 d): 4.32
- mRNA expression in mice, times that of YK-411 ([3]; 7 d): 20.54
- average radiation intensity, 6 h ([3]; Fluc-mRNA LNP intramuscular, 6 h after administration): 1588400
- average radiation intensity, 24 h ([3]; Fluc-mRNA LNP intramuscular, 24 h after administration): 855204
- average radiation intensity, 48 h ([3]; Fluc-mRNA LNP intramuscular, 48 h after administration): 308540
- average radiation intensity, 7 d ([3]; Fluc-mRNA LNP intramuscular, 7 d after administration): 9857
- transfection efficiency at different molar ratios of polymer-conjugated lipid DMG-PEG2000 to carrier ([4]; 0.5% to 15%): same results
- transfection effect at different molar ratios of cationic lipid, neutral lipid, structured lipid and polymer-conjugated lipid ([4]; 75:5:15:5 to 25:5:65:5): same results
- Relative light unit (RLU) ([5]; LNP with 0.3 μg Fluc-mRNA, 96-well plate, 24 hours): 5249304 RLU
- cell transfection efficiency, times that of YK-415 ([5]; ratio vs YK-415): 17.61
- cell transfection efficiency, times that of YK-417 ([5]; ratio vs YK-417): 44.76
- cell transfection efficiency, times that of YK-418 ([5]; ratio vs YK-418): 47.18
- cell transfection efficiency, times that of YK-424 ([5]; ratio vs YK-424): 1.82
- RLU value, times that of compound 21 ([5]; ratio vs compound 21): 3.47
- RLU value, times that of compound 23 ([5]; ratio vs compound 23): 3.74
